One block for each substance: values may come before it.
How the values were obtained:
[1] = test system: human T lymphocyte leukemia Jurkat cells; assay: Cell viability of Jurkat cells (CCK-8); type: cell-based; conditions: different concentrations, 8 hours
Method: (§1) The human lymphocyte leukemia Jurkat cells in exponential phase were seeded in the 96-well plate at the density of 2×10^4/well. Then synthetic peptides were sufficiently mixed with AD5-10 according to corresponding concentrations and incubated at 37° C. for 1 h. The mixture was then added to the culture wells containing the tumor cells. CCK-8 agent (Dojindo Laboratories, Kumamoto, Japan) was used and the OD values (wavelength […]) were detected 2 h after the reaction. The OD value of the wells having no cells was set to be “0”, the Relative cell viability=OD value of treated well/OD value of untreated sample×100%.

[2] = test system: human colon cancer cells HCT116; assay: Tumoricidal activity to human colon cancer cells HCT116 (microscopy, CCK-8); type: cell-based
Method: HCT116 cells were treated with TRAIL, AD5-10 and monoclonal antibodies Adie-1 and Adie-2 of different concentrations. […] The OD value of the wells having no cells was set to be “0”, the Relative cell viability=OD value of treated well/OD value of untreated sample×100%.

AD5-10 [3] = assay: Synthetic peptides binding AD5-10 and blocking its tumoricidal activity on Jurkat cells; type: cell-based, mouse
Method: as §1

AD5-10 [4] = assay: Oriented Peptide Array Library: binding of peptides to AD5-10; design: species or system mouse; conditions: for binding capabilities to AD5-10 (antigenicity): AD5-10 2 μg/ml
Source text: A series of the derivative peptides comprising the core peptide (as shown in Tab. 1 and 2) were synthesized according to the amino acid sequence of human DR5 (NCBI Acc #: NP_671716.1) provided in NCBI protein database. Subsequently, the peptide arrays as said above were spotted on nitrocellulose membranes using an ASP222 SPOT robot workstation (one dot corresponds to one polypeptide of which the concentration is about 5 nmol), the homogenicity of the protein amount was detected with ninhydrin staining before the corresponding detection. The membrane was blocked with 3% BSA in TBS-T solution for 1 h at room temperature and followed by incubation with corresponding specific primary antibodies (the final concentration is 2 μg/ml) at 4° C. over night. The array membrane was then incubated with HRP-conjugated goat anti-mouse polyclonal antibodies for 2 h at room temperature and then chromogenic substrate ECL was added to develop the membrane.

[5] = peptide at different concentrations

Substance: TRAIL: tumor necrosis factor-related apoptosis inducing ligand, natural ligand for death receptors DR4 and DR5
cell viability of Jurkat cells [1]: can inhibit the cell viability of human T lymphocyte leukemia Jurkat cells in a dose-dependent manner
morphological changes and cell death characteristics of HCT116 cells observed under microscope ([2]; 500 ng/ml, 8 h): Apparent morphological changes and cell death characteristics
cell viability of HCT116 cells ([2]; different concentrations, CCK-8): notably reduced with the increase of the treatment concentrations

Substance: AQITQQDLAPQQRA (wild type epitope 1) [wild-type epitope 1]
binding to AD5-10 and blocking of its cytotoxicity (AD5-10 [3]; peptide 10 μM): can bind to AD5-10 and block its cytotoxicity
binding to AD5-10 and blocking of its cytotoxicity (AD5-10 [3]; [5]): can bind to AD5-10 and block its cytotoxicity

Substance: QDLAP (Antigenic determinants recognized by the mouse anti-human death receptor DR5 monoclonal antibody AD5-10)
epitope recognized by AD5-10 (AD5-10 [4]): shortest amino acid sequence of the epitope recognized by AD5-10

Substance: mutant epitope 1: synthetic peptide of wild-type epitope 1 with the key amino acid residues mutated (AQITQQDAAPQQRA; mutant epitope 1)
binding to AD5-10 and blocking of its cytotoxicity (AD5-10 [3]; peptide 10 μM): cannot bind to AD5-10

binding capabilities to AD5-10 (antigenicity) (AD5-10 [4]): the strongest
Substance: ALITQQDLAPQQ (Extended sequence of SEQ ID NO. 1 which extends from the N-terminal of the said amino acid sequence to the C-terminal of the amino acid sequence in accordance with the amino acid sequence of DR5)

binding capabilities to AD5-10 (antigenicity) (AD5-10 [4]): the strongest
Substance: ITQQDLAPQQRA (Extended sequence of SEQ ID NO. 1 which extends from the N-terminal of the said amino acid sequence to the C-terminal of the amino acid sequence in accordance with the amino acid sequence of DR5)

Substance: AITQQDLAPQQRA (wild type epitope 2) [wild-type epitope 2]
binding to AD5-10 and blocking of its cytotoxicity (AD5-10 [3]; peptide 10 μM): can bind to AD5-10 and block its cytotoxicity
binding to AD5-10 and blocking of its cytotoxicity (AD5-10 [3]; [5]): can bind to AD5-10 and block its cytotoxicity

Substance: mutant epitope 2: synthetic peptide of wild-type epitope 2 with the key amino acid residues mutated (AITQQDAAPQQRA; mutant epitope 2)
binding to AD5-10 and blocking of its cytotoxicity (AD5-10 [3]; peptide 10 μM): cannot bind to AD5-10
